{"source": "paper PMC6257622", "about": "“Discovery and Structure–Activity-Relationship Study of N-Alkyl-5-hydroxypyrimidinone Carboxamides as Novel Antitubercular Agents Targeting Decaprenylphosphoryl-β-D-ribose 2′-Oxidase” (Journal of Medicinal Chemistry, 2018)", "type_in_all_cases": "cell-based, Mycobacterium tuberculosis", "key": {"[1]": {"system": "dprE12–TetON1 mutant (dprE1–dprE2 operon)", "settings": "removal of anhydrotetracycline; OD580nm at day 10 relative to DMSO control"}, "Mtb DprE1 P116S mutant": {"system": "Mtb DprE1 P116S mutant"}, "[2]": {"system": "P01-resistant mutants of Mtb H37Rv"}, "Mtb DprE1 Y314C mutant": {"system": "Mtb DprE1 Y314C mutant"}, "Mtb DprE1 Y314H mutant": {"system": "Mtb DprE1 Y314H mutant"}, "Mtb DprE1 N364S mutant": {"system": "Mtb DprE1 N364S mutant"}}, "data": [{"smiles": "C[C@H]1COC2(CCN(c3nc(=O)c4cc(C(F)(F)F)cc([N+](=O)[O-])c4s3)CC2)O1", "note": "[BTZ043, reference compound]", "values": [{"measurement": "effect of dprE1–dprE2 transcriptional repression on susceptibility / growth inhibition", "setting": "[1]", "value": "increase in susceptibility"}]}, {"smiles": "Cn1c(Cc2ccccc2C(F)(F)F)nc(C(=O)NCc2ccccc2)c(O)c1=O", "note": "[Compound P01, N-Benzyl-5-hydroxy-1-methyl-6-oxo-2-(2-(trifluoromethyl)benzyl)-1,6-dihydropyrimidine-4-carboxamide]", "values": [{"measurement": "MIC, DprE1 mutation P116S", "setting": "Mtb DprE1 P116S mutant", "value": 18.8, "unit": "µM"}, {"measurement": "fold change of MIC, P116S", "setting": "Mtb DprE1 P116S mutant", "value": 6}, {"measurement": "level of resistance of P01-resistant mutants compared with the parental strain", "setting": "[2]", "value": "more than 10 fold"}, {"measurement": "mutation frequency", "setting": "[2]; at 10× MIC on solid medium", "value": "7 × 10^–9"}, {"measurement": "MIC, DprE1 mutation Y314C", "setting": "Mtb DprE1 Y314C mutant", "value": 25, "unit": "µM"}, {"measurement": "fold change of MIC, Y314C", "setting": "Mtb DprE1 Y314C mutant", "value": 8}, {"measurement": "effect of dprE1–dprE2 transcriptional repression on susceptibility / growth inhibition", "setting": "[1]", "value": "more growth inhibition"}, {"measurement": "MIC, DprE1 mutation Y314H", "setting": "Mtb DprE1 Y314H mutant", "value": ">50", "unit": "µM"}, {"measurement": "fold change of MIC, Y314H", "setting": "Mtb DprE1 Y314H mutant", "value": ">16"}, {"measurement": "MIC, DprE1 mutation N364S", "setting": "Mtb DprE1 N364S mutant", "value": 2.34, "unit": "µM"}, {"measurement": "fold change of MIC, N364S", "setting": "Mtb DprE1 N364S mutant", "value": 0.75}]}, {"smiles": "CCn1c(Cc2ccccc2C(F)(F)F)nc(C(=O)NCc2ccccc2)c(O)c1=O", "note": "[Compound P04, N-Benzyl-1-ethyl-5-hydroxy-6-oxo-2-(2-(trifluoromethyl)benzyl)-1,6-dihydropyrimidine-4-carboxamide]", "values": [{"measurement": "effect of dprE1–dprE2 transcriptional repression on susceptibility / growth inhibition", "setting": "[1]", "value": "more growth inhibition"}]}, {"smiles": "CC(NC(=O)c1nc(Cc2ccccc2C(F)(F)F)n(C)c(=O)c1O)c1ccccc1", "note": "(stereo not shown) [Compound P13, 5-Hydroxy-1-methyl-6-oxo-N-(1-phenylethyl)-2-(2-(trifluoromethyl)benzyl)-1,6-dihydropyrimidine-4-carboxamide]", "values": [{"measurement": "effect of dprE1–dprE2 transcriptional repression on susceptibility / growth inhibition", "setting": "[1]", "value": "did not result in growth inhibition"}]}, {"smiles": "CCOC(=O)NC(=O)c1ccsc1NC(=O)c1nc2ccccc2s1", "note": "[TCA1, reference compound]", "values": [{"measurement": "effect of dprE1–dprE2 transcriptional repression on susceptibility / growth inhibition", "setting": "[1]", "value": "increase in susceptibility"}]}, {"smiles": "CC[C@@H](CO)NCCN[C@@H](CC)CO", "note": "[ethambutol, reference compound]", "values": [{"measurement": "effect of dprE1–dprE2 transcriptional repression on susceptibility / growth inhibition", "setting": "[1]", "value": "equipotent efficacy"}]}]}
